Assay results taken from US20230159532A1, “PARATHYROID HORMONE (PTH) RECEPTOR ANTAGONISTS AND USES THEREOF” (Crinetics Pharmaceuticals, Inc., priority 2021, published 2023).

Target: T1, human PTHR1 receptor (Homo sapiens, UniProt Q03431)
T1 construct: purchased Eurofins HTS030M
T1 sequence (Q03431 27-593): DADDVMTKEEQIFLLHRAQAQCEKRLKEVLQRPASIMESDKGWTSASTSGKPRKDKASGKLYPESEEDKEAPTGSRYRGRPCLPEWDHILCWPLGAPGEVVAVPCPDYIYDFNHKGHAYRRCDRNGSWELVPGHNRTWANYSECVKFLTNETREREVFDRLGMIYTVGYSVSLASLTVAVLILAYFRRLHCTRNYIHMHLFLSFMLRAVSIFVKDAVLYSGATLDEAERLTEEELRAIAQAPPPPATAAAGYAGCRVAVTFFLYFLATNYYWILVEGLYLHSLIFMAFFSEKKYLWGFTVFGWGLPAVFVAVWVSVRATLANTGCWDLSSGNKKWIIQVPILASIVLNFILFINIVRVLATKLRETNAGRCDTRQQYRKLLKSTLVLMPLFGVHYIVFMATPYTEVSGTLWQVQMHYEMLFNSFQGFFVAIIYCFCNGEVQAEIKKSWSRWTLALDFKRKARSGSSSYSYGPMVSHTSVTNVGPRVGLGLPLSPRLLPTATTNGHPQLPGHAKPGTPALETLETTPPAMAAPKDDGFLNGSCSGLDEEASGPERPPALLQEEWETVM
Assay: Competitive antagonist binding assay for hPTH-R1 (radioactive competition binding, SPA beads)
Settings: human PTHR1 membranes, [125I]-[Nle8,18,Tyr34]-PTH(1-34) 0.2 nM, 90 minutes at room temperature; read-out: hPTHR1 Ki
In short: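 Human PTHR1 membranes on SPA beads incubated 90 min at room temperature with compound (typically 0-10,000 nM final) and 0.2 nM [125I]-[Nle8,18,Tyr34]-PTH(1-34) in HEPES buffer with MgCl2, CaCl2, BSA, Triton X-100 and protease inhibitors, pH 7.4. Scintillation signal read; Ki values derived.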

| Structure (SMILES) | Ki [µM] |
| --- | --- |
| CCN1C(=O)N(c2c(F)cc(NCCN[C@H](C)CO)cc2F)c2cc(C#N)ccc2-c2cc(F)cnc21 [1-214, 10-{2,6-difluoro-4-[(2-{[(2R)-1-hydroxypropan-2-yl]amino}ethyl)amino]phenyl}-8-ethyl-4-fluoro-9-oxo-6,8,10-triazatricyclo[9.4.0.0^2,7]pentadeca-1(11),2(7),3,5,12,14-hexaene-13-carbonitrile] | < 0.1 |
| CC(C)N1C(=O)N(c2c(F)cc(NCCNCCO)cc2F)c2cc(Cl)ccc2-c2cc(F)cnc21 [1-106, 13-chloro-10-[2,6-difluoro-4-({2-[(2-hydroxyethyl)amino]ethyl}amino)phenyl]-4-fluoro-8-(propan-2-yl)-6,8,10-triazatricyclo[9.4.0.0^2,7]pentadeca-1(11),2(7),3,5,12,14-hexaen-9-one] | < 0.1 |
| CCN1C(=O)N(c2c(F)cc(NCCNC3CCOCC3)cc2F)c2cc(Cl)ccc2-c2cc(Cl)cnc21 [1-12, 4,13-dichloro-10-[2,6-difluoro-4-({2-[(oxan-4-yl)amino]ethyl}amino)phenyl]-8-ethyl-6,8,10-triazatricyclo[9.4.0.0^2,7]pentadeca-1(11),2(7),3,5,12,14-hexaen-9-one] | < 0.1 |
| CCN1C(=O)N(c2c(F)cc(NCCNC3CCOCC3)cc2F)c2cc(Cl)ccc2-c2nc(C#N)ccc21 [3-17, 13-chloro-10-[2,6-difluoro-4-({2-[(oxan-4-yl)amino]ethyl}amino)phenyl]-8-ethyl-9-oxo-3,8,10-triazatricyclo[9.4.0.0^2,7]pentadeca-1(11),2(7),3,5,12,14-hexaene-4-carbonitrile] | 1 to 10 |
| CN1C(=O)N(c2c(F)cc(NCCNCCO)cc2F)c2cc(C#N)cc(F)c2-c2cc(Cl)cnc21 [1-116, 4-chloro-10-[2,6-difluoro-4-({2-[(2-hydroxyethyl)amino]ethyl}amino)phenyl]-15-fluoro-8-methyl-9-oxo-6,8,10-triazatricyclo[9.4.0.0^2,7]pentadeca-1(11),2(7),3,5,12,14-hexaene-13-carbonitrile] | < 0.1 |
| Cc1cc(Cl)cc2c1-c1cc(F)cnc1N(C(C)C)C(=O)N2c1c(F)cc(NCCNCCO)cc1F [1-79, 13-chloro-10-[2,6-difluoro-4-({2-[(2-hydroxyethyl)amino]ethyl}amino)phenyl]-4-fluoro-15-methyl-8-(propan-2-yl)-6,8,10-triazatricyclo[9.4.0.0^2,7]pentadeca-1(11),2(7),3,5,12,14-hexaen-9-one] | < 0.1 |
| CCN1C(=O)N(c2c(F)cc(N3CCNCC3)cc2F)c2cc(C#N)ccc2-c2cc(Cl)cnc21 [1-136, 4-chloro-10-[2,6-difluoro-4-(piperazin-1-yl)phenyl]-8-ethyl-9-oxo-6,8,10-triazatricyclo[9.4.0.0^2,7]pentadeca-1(11),2(7),3,5,12,14-hexaene-13-carbonitrile] | 0.1 to 1 |
| CCN1C(=O)N(c2c(F)cc(N3CC(NCCO)C3)cc2F)c2cc(C#N)ccc2-c2cc(F)cnc21 [1-124, 10-(2,6-difluoro-4-{3-[(2-hydroxyethyl)amino]azetidin-1-yl}phenyl)-8-ethyl-4-fluoro-9-oxo-6,8,10-triazatricyclo[9.4.0.0^2,7]pentadeca-1(11),2(7),3,5,12,14-hexaene-13-carbonitrile] | 0.1 to 1 |
| CN1C(=O)N(c2c(F)cc(NCCNC3CCOCC3)cc2F)c2cc(Cl)ccc2-c2cc(Cl)cnc21 [1-35, 4,13-dichloro-10-[2,6-difluoro-4-({2-[(oxan-4-yl)amino]ethyl}amino)phenyl]-8-methyl-6,8,10-triazatricyclo[9.4.0.0^2,7]pentadeca-1(11),2(7),3,5,12,14-hexaen-9-one] | < 0.1 |
| CCN1C(=O)N(c2c(F)cc(NCCNC3CCOCC3)cc2F)c2cc(Cl)ccc2-c2cc(C#N)ncc21 [3-24, 13-chloro-10-[2,6-difluoro-4-({2-[(oxan-4-yl)amino]ethyl}amino)phenyl]-8-ethyl-9-oxo-5,8,10-triazatricyclo[9.4.0.0^2,7]pentadeca-1(11),2(7),3,5,12,14-hexaene-4-carbonitrile] | < 0.1 |
| CCN1C(=O)N(c2c(F)cc(NCCNCCOCCC(=O)O)cc2F)c2cc(C#N)ccc2-c2cc(Cl)cnc21 [1-229, 3-[2-({2-[(4-{4-chloro-13-cyano-8-ethyl-9-oxo-6,8,10-triazatricyclo[9.4.0.0^2,7]pentadeca-1(11),2(7),3,5,12,14-hexaen-10-yl}-3,5-difluorophenyl)amino]ethyl}amino)ethoxy]propanoic acid] | < 0.1 |
| CCN1C(=O)N(c2c(F)cc(NC3CNC3)cc2F)c2cc(C#N)ccc2-c2cc(Cl)cnc21 [1-234, 10-{4-[(azetidin-3-yl)amino]-2,6-difluorophenyl}-4-chloro-8-ethyl-9-oxo-6,8,10-triazatricyclo[9.4.0.0^2,7]pentadeca-1(11),2(7),3,5,12,14-hexaene-13-carbonitrile] | < 0.1 |
| CCN1C(=O)N(c2c(F)cc(NCCNC)cc2F)c2cc(Cl)cc(OC)c2-c2cc(F)cnc21 [1-87, 13-chloro-10-(2,6-difluoro-4-{[2-(methylamino)ethyl]amino}phenyl)-8-ethyl-4-fluoro-15-methoxy-6,8,10-triazatricyclo[9.4.0.0^2,7]pentadeca-1(11),2(7),3,5,12,14-hexaen-9-one] | < 0.1 |
| CNCCNc1cc(F)c(N2C(=O)N(C)c3ncc(F)cc3-c3c(C)cc(Cl)cc32)c(F)c1 [1-75, 13-chloro-10-(2,6-difluoro-4-{[2-(methylamino)ethyl]amino}phenyl)-4-fluoro-8,15-dimethyl-6,8,10-triazatricyclo[9.4.0.0^2,7]pentadeca-1(11),2(7),3,5,12,14-hexaen-9-one] | < 0.1 |
| CCN1C(=O)N(c2c(F)cc(NCC3(CO)CNC3)cc2F)c2cc(C#N)ccc2-c2cc(Cl)cnc21 [1-158, 4-chloro-10-[2,6-difluoro-4-({[3-(hydroxymethyl)azetidin-3-yl]methyl}amino)phenyl]-8-ethyl-9-oxo-6,8,10-triazatricyclo[9.4.0.0^2,7]pentadeca-1(11),2(7),3,5,12,14-hexaene-13-carbonitrile] | 0.1 to 1 |
| CCN1C(=O)N(c2c(F)cc(NCCNCCCS(=O)(=O)O)cc2F)c2cc(C#N)ccc2-c2cc(Cl)cnc21 [1-175, 3-({2-[(4-{4-chloro-13-cyano-8-ethyl-9-oxo-6,8,10-triazatricyclo[9.4.0.0^2,7]pentadeca-1(11),2(7),3,5,12,14-hexaen-10-yl}-3,5-difluorophenyl)amino]ethyl}amino)propane-1-sulfonic acid] | < 0.1 |
| CCN1C(=O)N(c2c(F)cc(NCCNCCCC(=O)O)cc2F)c2cc(C#N)cc(F)c2-c2cc(F)cnc21 [1-104, 4-({2-[(4-{13-cyano-8-ethyl-4,15-difluoro-9-oxo-6,8,10-triazatricyclo[9.4.0.0^2,7]pentadeca-1(11),2(7),3,5,12,14-hexaen-10-yl}-3,5-difluorophenyl)amino]ethyl}amino)butanoic acid] | < 0.1 |
| CNCCNc1cc(F)c(N2C(=O)N(CCOC)c3ncc(F)cc3-c3ccc(C#N)cc32)c(F)c1 [1-122, 10-(2,6-difluoro-4-{[2-(methylamino)ethyl]amino}phenyl)-4-fluoro-8-(2-methoxyethyl)-9-oxo-6,8,10-triazatricyclo[9.4.0.0^2,7]pentadeca-1(11),2(7),3,5,12,14-hexaene-13-carbonitrile] | < 0.1 |
